Patent US7863271B2, “2-aminobenzoxazole carboxamides as 5HT3 modulators” (Albany Molecular Research, Inc., priority 2006, dated 2011)
Counter-ions that a name gives are not always drawn.

target: T1, 5-HT3 (Homo sapiens, UniProt P46098); assay: Compound affinity for the human 5-HT3 receptor (Assay B), SPA radioligand binding with [9-methyl-3H]BRL-43694; set-up: purchased Perkin Elmer; settings: Assay B (method B unless otherwise annotated); read-out: 5-HT3 Ki
T1 sequence (P46098 24-478): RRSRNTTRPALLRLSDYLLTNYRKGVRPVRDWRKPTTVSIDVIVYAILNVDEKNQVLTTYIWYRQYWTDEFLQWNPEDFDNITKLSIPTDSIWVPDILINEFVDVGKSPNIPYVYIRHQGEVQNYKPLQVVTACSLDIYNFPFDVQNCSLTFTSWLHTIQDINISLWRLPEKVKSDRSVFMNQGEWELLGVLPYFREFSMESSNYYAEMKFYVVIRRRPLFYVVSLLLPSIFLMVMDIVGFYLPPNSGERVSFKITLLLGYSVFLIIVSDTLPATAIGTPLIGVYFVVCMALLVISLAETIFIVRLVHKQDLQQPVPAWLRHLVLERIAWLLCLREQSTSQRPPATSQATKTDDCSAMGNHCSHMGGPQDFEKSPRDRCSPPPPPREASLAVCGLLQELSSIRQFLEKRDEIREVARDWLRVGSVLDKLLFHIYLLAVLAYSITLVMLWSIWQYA
Method in brief: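 Ten competitor concentrations in duplicate; specific binding (total minus nonspecific) fitted for IC50, converted to Ki by Cheng-Prusoff.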

Row | Molecule | Ki
1 | CN1CCN(c2nc3c(C(=O)N[C@H]4C[C@H]5CCC[C@@H](C4)N5C)cccc3o2)CC1 [Example 1, Endo-N-(9-Methyl-9-azabicyclo[3.3.1]non-3-yl)-2-(4-methylpiperazin-1-yl)benzoxazole-4-carboxamide Dihydrochloride] | 85 nM
2 | C[C@H]1CN(Cc2ccccc2)C(=O)[C@H](C)N1c1nc2c(C(=O)NC3CC4CCCC(C3)N4C)cccc2o1 (stereo partly drawn) [Example 97, Endo-N-(9-Methyl-9-azabicyclo[3.3.1]nonan-3-yl)-2-((2S,6S)-4-benzyl-2,6-dimethyl-3-oxopiperazine-1-yl)benzoxazole-4-carboxamide Hydrochloride] | 0.4 nM
3 | CN1[C@@H]2COC[C@H]1C[C@@H](NC(=O)c1cccc3oc(N4CCOCC4)nc13)C2 [Example 44, Endo-N-(9-Methyl-3-oxa-9-azabicyclo[3.3.1]nonan-7-yl)-2-morpholinobenzoxazole-4-carboxamide Hydrochloride] | 323 nM
4 | CN1C2CCCC1CC(NC(=O)c1cccc3oc(N4CCOC[C@@H]4C(C)(C)C)nc13)C2 (stereo partly drawn) [Example 68, Endo-N-(9-Methyl-9-azabicyclo[3.3.1]nonan-3-yl)-2-((S)-3-tert-butylmorpholino)benzoxazole-4-carboxamide Hydrochloride] | 2 nM
5 | CN(C)c1nc2c(C(=O)N[C@@H]3CN4CCC3CC4)cc(Cl)cc2o1 [Example 108, (S)—N-(quinuclidine-8-yl)-6-chloro-2-(dimethylamino)benzoxazole-4-carboxamide Hydrochloride] | 14.4 nM
6 | CC[C@H]1COCCN1c1nc2c(C(=O)NC3CC4CCCC(C3)N4C)cc(Cl)cc2o1 (stereo partly drawn) [Example 62, Endo-N-(9-Methyl-9-azabicyclo[3.3.1]nonan-3-yl)-6-chloro 2-((S-3-ethylmorpholino)benzoxazole-4-carboxamide Hydrochloride] | 6.3 nM
7 | C[C@H]1CN(C)CCN1c1nc2c(C(=O)NC3CC4CCCC(C3)N4C)cc(Cl)cc2o1 (stereo partly drawn) [Example 63, Endo-N-(9-methyl-9-azabicyclo[3.3.1]nonan-3-yl)-6-chloro-2-((S-2,4-dimethylpiperazin-1-yl)benzoxazole-4-carboxamide Hydrochloride] | 16.1 nM
8 | O=C(NC1CN2CCC1CC2)c1cccc2oc(N3CCOCC3c3ccccc3)nc12 [Example 20, (S)—N-(quinuclidine-8-yl)-2-(3-phenylmorpholino)benzoxazole-4-carboxamide Hydrochloride] | 34.4 nM
9 | CC(C)[C@H]1CN(c2nc3c(C(=O)NC4CC5CCCC(C4)N5C)cccc3o2)CCN1 (stereo partly drawn) [Example 78, Hydrochloride] | 25.8 nM
10 | CCN(C)c1nc2c(C(=O)N[C@@H]3CN4CCC3CC4)cccc2o1 [Example 83, (S)—N-(quinuclidine-8-yl)-2-(ethyl(methyl)amino)benzoxazole-4-carboxamide Hydrochloride] | 6.8 nM
11 | Endo-N-(9-Methyl-9-azabicyclo[3.3.1]nonan-3-yl)-2-((3aS,6aS)-hexahydropyrrolo[3,4-b]pyrrol-5(1H)-yl)benzoxazole-4-carboxamide Hydrochloride [Example 46] | 284 nM
12 | C[C@@H]1CN(c2nc3c(C(=O)N[C@@H]4CN5CCC4CC5)cccc3o2)C[C@H](C)O1 [Example 18, (S)—N-(quinuclidine-8-yl)-2-((2S,6R)-2,6-dimethylmorpholino)benzoxazole-4-carboxamide Hydrochloride] | 443 nM
13 | CN(C)C(=O)CNc1nc2c(C(=O)N[C@H]3C[C@H]4CCC[C@@H](C3)N4C)cccc2o1 [Example 47, Endo-N-(9-Methyl-9-azabicyclo[3.3.1]nonan-3-yl)-2-(2-(dimethylamino)-2-oxoethylamino)benzoxazole-4-carboxamide Dihydrochloride] | 137 nM
14 | CN1[C@@H]2CCC[C@H]1C[C@@H](NC(=O)c1cccc3oc(N4CCNc5ccccc54)nc13)C2 [Example 29, Endo-N-(9-Methyl-9-azabicyclo[3.3.1]non-3-yl)-2-(3,4-dihydroquinoxaline-1(2H)-yl)benzoxazole-4-carboxamide Dihydrochloride] | 3.6 nM
15 | CN1[C@@H]2CCC[C@H]1C[C@@H](NC(=O)c1cccc3oc(N4CCC[C@H]4C(N)=O)nc13)C2 [Example 53, Endo-N-(9-Methyl-9-azabicyclo[3.3.1]non-3-yl)-2-((S)-2-carbamoylpyrrolidin-1-yl)benzoxazole-4-carboxamide Hydrochloride] | 212 nM
16 | C[C@H]1CN(S(C)(=O)=O)C[C@H](C)N1c1nc2c(C(=O)NC3CC4CCCC(C3)N4C)cccc2o1 (stereo partly drawn) [Example 131, Endo-N-(9-methyl-9-azabicyclo[3.3.1]nonan-3-yl)-2-((2S,6S-2,6-dimethyl-4-(methylsulfonyl)piperazin-1-yl)benzoxazole-4-carboxamide Hydrochloride] | 1 nM
17 | CN1C2CCCC1CC(NC(=O)c1cccc3oc(N4CCN[C@H]5CCCC[C@@H]54)nc13)C2 (stereo partly drawn) [Example 126, Endo-N-(9-Methyl-9-azabicyclo[3.3.1]nonan-3-yl)-2-((4aS,8aS)-octahydroquinoxalin-1(2H)-yl)benzoxazole-4-carboxamide Dihydrochloride] | 16.5 nM
18 | C[C@H]1CN(C(=O)c2ccccc2)C[C@H](C)N1c1nc2c(C(=O)NC3CC4CCCC(C3)N4C)cccc2o1 (stereo partly drawn) [Example 117, Endo-N-(9-methyl-9-azabicyclo[3.3.1]nonan-3-yl)-2-((2S,6S)-4-benzoyl-2,6-dimethylpiperazin-1-yl)benzoxazole-4-carboxamide Hydrochloride] | 2.3 nM
19 | C[C@H]1CN(C)C(=O)[C@H](C)N1c1nc2c(C(=O)NC3CN4CCC3CC4)cccc2o1 (stereo partly drawn) [Example 124, N-(Quinuclidine-8-yl)-2-((2S,6S)-2,4,6-trimethyl-3-oxopiperazine-1-yl)benzoxazole-4-carboxamide Hydrochloride] | 17.7 nM
20 | CN1CCN(c2nc3c(C(=O)N[C@H]4C[C@H]5CCC[C@@H](C4)N5C)cccc3o2)C(c2ccccc2)C1 (mixture of isomers) [Example 23, Endo-N-(9-Methyl-9-azabicyclo[3.3.1]non-3-yl)-2-(4-methyl-2-phenylpiperazin-1-yl)benzoxazole-4-carboxamide Dihydrochloride] | 25.2 nM
21 | C[C@H]1CNC[C@H](C)N1c1nc2c(C(=O)NC3CN4CCC3CC4)ccc(F)c2o1 (stereo partly drawn) [Example 118, (S)—N-(Quinulidin-8-yl)-2-((2S,6S)-2,6-dimethylpiperazine-1-yl)-7-fluorobenzoxazole-4-carboxamide hydrochloride] | 26.8 nM
22 | C[C@H]1C(=O)NCCN1c1nc2c(C(=O)NC3CC4CCCC(C3)N4C)cccc2o1 (stereo partly drawn) [Example 98, Endo-N-(9-Methyl-9-azabicyclo[3.3.1]nonan-3-yl)-2-((S)-2-methyl-3-oxopiperazine-1-yl)benzoxazole-4-carboxamide Hydrochloride] | 14.6 nM
23 | CN1[C@@H]2CCC[C@H]1C[C@@H](NC(=O)c1cccc3oc(Nc4ccccc4)nc13)C2 [Example 5, Endo-N-(9-Methyl-9-azabicyclo[3.3.1]non-3-yl)-2-(phenylamino)benzoxazole-4-carboxamide Hydrochloride] | 6.25 nM
24 | CC(C)C[C@H]1CN(c2nc3c(C(=O)NC4CC5CCCC(C4)N5C)cccc3o2)CCN1 (stereo partly drawn) [Example 74, Endo-N-(9-Methyl-9-azabicyclo[3.3.1]nonan-3-yl)-2-((3S)-3-isobutylpiperazine-1-yl)benzoxazole-4-carboxamide Hydrochloride] | 72.9 nM
25 | CC(C)COC(=O)N1C[C@H](C)N(c2nc3c(C(=O)NC4CC5CCCC(C4)N5C)cccc3o2)[C@@H](C)C1 (stereo partly drawn) [Example 138, Endo-N-(9-methyl-9-azabicyclo[3.3.1]nonan-3-yl)-2-((2S,6S)-4-(isobutoxycarbonyl)-2,6-dimethylpiperazin-1-yl)benzoxazole-4-carboxamide Hydrochloride] | 2.4 nM
26 | CN1[C@@H]2CCC[C@H]1C[C@@H](NC(=O)c1cccc3oc(N4CCC5(CC4)OCCO5)nc13)C2 [Example 91, Endo-N-(9-Methyl-9-azabicyclo[3.3.1]nonan-3-yl)-2-(1,4-dioxa-8-azaspiro[4.5]decan-8-yl)benzoxazole-4-carboxamide Hydrochloride] | 14.5 nM
27 | CC(C)N(C)c1nc2c(C(=O)N[C@@H]3CN4CCC3CC4)cccc2o1 [Example 85, (S)—N-(quinuclidine-8-yl)-2-(isopropyl(methyl)amino)benzoxazole-4-carboxamide Hydrochloride] | 28.9 nM
